# Entries after “also recorded” stand apart in the source; their conditions may differ.
# Tests used:
# B16-F10 melanoma = assay: Mouse survival, B16-F10 melanoma in C57 black mice; format: in vivo; conditions: 1 mg/Kg/day for 25 days, B16-F10 s.c.
# Description: (§1) Antitumor Activity in the Nude Mouse Tumor Xenograft Model. Nude mice and C57 BL-6 black mice (National Cancer Institute, Bethesda, Md.) were maintained in accordance with the Institutional Animal Care and Use Committee (IACUC) procedures and guidelines. v-Src- and oncogenic H-Ras-transformed NIH 3T3, A549, MDA-MB-468 and Calu-1 cells were harvested, resuspended in PBS and injected s.c. into the right and left flank (10×10^6 cells per flank) of 8 week old female nude mice as reported previously (Sun, J. et al. Cancer Res., 1999, 59:4919-4926). Similarly, murine B16-F10 Melanoma cells were injected s.c. into the right and left flank (10^6 cells per flank) of C57 black mice. When tumors reached about 150 mm^3, animals were randomized (five animals per group; two tumors per animal) and dosed i.p. with 0.2 ml once daily. Control animals received DMSO (20%) vehicle whereas treated animals were injected with JSI-124 (1 mg/kg/day) in 20% DMSO in water. The tumor volumes were determined by measuring the length (l) and the width (w) and calculating the volume (V=1w^2/2) as described previously (Sun, J. et al. Cancer Res., 1999, 59:4919-4926). Statistical significance between control and treated animals were evaluated by using Student's t-test. For the mouse survival experiments, C57 BL-6 black mice were implanted s.c. with B16-F10 cells (10^5 to 10^6 cells per flank). On day 5 after implantation the mice were randomized (6 animals per group) and treated with either vehicle or JSI-124 (1 mg/Kg/day) for 25 days. Percent surviving mice was determined by monitoring the death of mice until all mice died. Two experiments of 12 animals each (6 control and 6 treated with JSI-124) were carried out. For statistical analysis: for each of the two experiments, mice receiving JSI-124 were compared to those receiving vehicle control with respect to survival using the permutation log rank test as implemented in the statistical software package, ProcStatXact (p-values are two sided and exact).
# phospho-Erk1/2 = assay: Western blotting for phospho-Erk1/2; format: cell-based, human; conditions: A549 and MDA-MB-468 cells, up to 10 μM
# Experimental: (§2) Western Blotting. Treated cell samples were lysed in 30 mM Hepes, pH 7.5, 10 mM NaCl, 5 mM MgCl2, 25 mM NaF, 1 mM EGTA, 1% Triton-X-100, 10% glycerol, 2 mM sodium orthovanadate, 10 μg/ml aprotinin, 10 μg/ml soybean trypsin inhibitor, 25 μg/ml leupeptin, 2 mM PMSF, and 6.4 mg/ml p-nitrophenylphosphate. Phospho-STAT3, phospho-AKT, phospho-MEK, and phospho-p42/p44 MAPK antibodies were obtained from Cell Signaling Technologies, Cambridge, Mass. Antibodies to STAT3, JAK2, and phospho-INK were purchased from Santa Cruz Biotechnology, Santa Cruz, Calif. Phospho-JAK2 antibody came from Upstate Biotechnology, Lake Placid, N.Y. Membranes were blocked in either 5% milk in PBS, pH 7.4, containing 0.1% Tween-20 (PBS-T) or 1% BSA in TBS, pH 7.5, containing 0.1% Tween-20 (TBS-T). Phospho-specific antibodies (excepting P-MAPK and P-JNK) were incubated in 1% BSA in TBS-T while all other antibodies were diluted in 5% milk in PBS-T for either 2 hr at room temperature or overnight at 4° C. HRP-conjugated secondary antibodies (Jackson ImmunoResearch) were diluted in 5% milk in either PBS-T or TBS-T at 1:1000 dilution for one hour at room temperature. Western blots were visualized using enhanced chemiluminescence as described previously (Blaskovich, M. A. et al. Nat. Biotechnol., 2000, 18:1065-1070).
# MDA-MB-468 tumors = assay: Antitumor activity, MDA-MB-468 xenograft in nude mice; format: in vivo; conditions: 1 mg/kg/day i.p.
# Description: as §1, with “For the mouse survival experiments, C57 BL-6 black mice were implanted s.c. with B16-F10 cells (10^5 to 10^6 cells per flank). On day 5 after implantation the mice were randomized (6 animals per group) and treated with either vehicle or JSI-124 (1 mg/Kg/day) for 25 days.” left out, “Two experiments of 12 animals each (6 control and 6 treated with JSI-124) were carried out. For statistical analysis: for each of the two experiments, mice receiving JSI-124 were compared to those receiving vehicle control with respect to survival using the permutation log rank test as implemented in the statistical software package, ProcStatXact (p-values are two sided and exact).” left out
# phosphotyrosine Src = assay: Western blotting for phosphotyrosine Src; format: cell-based, human; conditions: A549 and MDA-MB-468 cells, various concentrations, 4 hr
# Experimental: as §2
# v-Src/NIH 3T3 tumors = assay: Antitumor activity, v-Src-transformed NIH 3T3 tumors in nude mice; format: in vivo
# Description: as §1, with “[…] […]” for “When tumors reached about 150 mm^3, animals were randomized (five animals per group; two tumors per animal) and dosed i.p. with 0.2 ml once daily. Control animals received DMSO (20%) vehicle whereas treated animals were injected with JSI-124 (1 mg/kg/day) in 20% DMSO in water.”, “On day 5 after implantation the mice were randomized (6 animals per group) and treated with either vehicle or JSI-124 (1 mg/Kg/day) for 25 days.” left out
compound,measurement,setting,value
"CC(C)(O)/C=C/C(=O)[C@](C)(O)[C@H]1[C@H](O)C[C@@]2(C)[C@@H]3CC=C4[C@@H](C=C(O)C(=O)C4(C)C)[C@]3(C)C(=O)C[C@]12C [JSI-124, cucurbitacin I]",T50 (day until which 50% of mice survived),B16-F10 melanoma,34 days
same,T50 increase versus vehicle,B16-F10 melanoma,13 days
same,day by which all mice died,B16-F10 melanoma,42 days
same,day by which none of the treated mice were dead,B16-F10 melanoma,23 days
same,phospho-Erk1/2 levels,phospho-Erk1/2,no inhibitory effect; also recorded: increased the levels of phosphorylation
same,inhibition of MDA-MB-468 tumor growth,MDA-MB-468 tumors,86%
same,levels of tyrosine phosphorylated Src,phosphotyrosine Src,not those of tyrosine phosphorylated Src
same,inhibition of growth of v-src transformed NIH 3T3 tumors (in words),v-Src/NIH 3T3 tumors; 1 mg/Kg/day intraperitoneally,inhibits tumor growth
same,inhibition of growth of v-Src/NIH 3T3 tumors,v-Src/NIH 3T3 tumors; 1 mg/kg/day i.p.,64%

# From patent US8691799B2, “Materials and methods for treatment of cancer and identification of anti-cancer compounds” (priority 2001, dated 2014)
